Patent publication US20050154042A1, “N-alkyl pyrroles as HMG-CoA reductase inhibitors” (priority 2003, published 2005)
Counter-ions that a name gives are not always drawn.

Row | melting point | SMILES
1 | 255 to 256 °C | CC(C)n1c(/C=C/[C@@H](O)C[C@@H](O)CC(=O)O)c(-c2ccc(F)cc2)c(-c2ccccc2)c1C(=O)Nc1ccc(S(N)(=O)=O)cc1 (as salt: sodium) [Example 5, (3R,5S)-7-[3-(4-Fluoro-phenyl)-1-isopropyl-4-phenyl-5-(4-sulfamoyl-phenylcarbamoyl)-1H-pyrrol-2-yl]-3,5-dihydroxy-hept-6-enoic Acid Sodium Salt]
2 | 229 to 230 °C | CC(C)n1c(/C=C/[C@@H](O)C[C@@H](O)CC(=O)[O-])c(-c2ccc(F)cc2)c(-c2ccc(F)cc2)c1C(=O)Nc1cccc(Cl)c1.[Na+] [Example 139, (3R,5S)-7-[5-(3-Chloro-phenylcarbamoyl)-3,4-bis-(4-fluoro-phenyl)-1-isopropyl-1H-pyrrol-2-yl]-3,5-dihydroxy-hept-6-enoic Acid Sodium Salt]
3 | 175 to 177 °C | CCc1cccc(NC(=O)c2c(-c3ccc(F)cc3)c(-c3ccc(F)cc3)c(CC[C@@H](O)C[C@@H](O)CC(=O)[O-])n2C(C)C)c1.[Na+] [Example 140, (3R,5R)-7-[5-(3-Ethyl-phenylcarbamoyl)-3,4-bis-(4-fluoro-phenyl)-1-isopropyl-1H-pyrrol-2-yl]-3,5-dihydroxy-heptanoic Acid Sodium Salt]
4 | 173 to 175 °C | Cc1ccnc(NC(=O)c2c(-c3ccc(F)cc3)c(-c3ccc(F)cc3)c(C=O)n2C(C)C)n1 [Example 179, 3,4-bis-(4-fluoro-phenyl)-5-formyl-1-isopropyl-1H-pyrrole-2-carboxylic Acid (4-methyl-pyrimidin-2-yl)-amide]
5 | 239 to 241 °C (dec.) | CC(C)n1c(CC[C@@H](O)C[C@@H](O)CC(=O)O)c(-c2ccc(F)cc2)c(-c2ccccc2)c1C(=O)NCc1cn2c(n1)CCCC2 (as salt: sodium) [Example 93, (3R,5R)-7-[3-(4-Fluorophenyl)-1-isopropyl-5-[(5,6,7,8-tetrahydro-imidazo[1,2-a]pyridin-2-yl Methyl)carbamoyl]-4-phenyl-1H-pyrrol-2-yl]-3,5-dihydroxyheptanoic Acid Sodium Salt]
6 | 220 to 223 °C | CC(C)n1c(CC[C@@H](O)C[C@@H](O)CC(=O)[O-])c(-c2ccc(F)cc2)c(-c2ccc(F)cc2)c1C(=O)Nc1ccc(C(=O)N(C)C)cc1.[Na+] [Example 85, (3R,5R)-7-[5-(4-dimethylcarbamoyl-phenylcarbamoyl)-3,4-bis-(4-fluoro-phenyl)-1-isopropyl-1H-pyrrol-yl]-3,5-dihydroxy-heptanoate Sodium Salt]
7 | 171 to 174 °C | COC(=O)c1cccc(CNC(=O)c2c(-c3ccccc3)c(-c3ccc(F)cc3)c(/C=C/[C@@H](O)C[C@@H](O)CC(=O)[O-])n2C(C)C)c1.[Na+] [Example 151, (3R,5S)-7-[3-(4-Fluoro-phenyl)-1-isopropyl-5-(3-methoxycarbonyl-benzylcarbamoyl)-4-phenyl-1H-pyrrol-2-yl]-3,5-dihydroxy-hept-6-enoic Acid Sodium Salt]
8 | 223 to 225 °C (dec.) | CC(C)n1c(CC[C@@H](O)C[C@@H](O)CC(=O)[O-])c(-c2ccc(F)cc2)c(-c2ccccc2)c1C(=O)N(c1ccccn1)c1ccccn1.[Na+] [Example 123, (3R,5R)-7-[5-(Di-pyridin-2-yl-carbamoyl)-3-(4-fluoro-phenyl)-1-isopropyl-4-phenyl-1H-pyrrol-2-yl]-3,5-dihydroxy-heptanoic Acid Sodium Salt]
9 | 218 to 220 °C | CC(C)n1c(CC[C@@H](O)C[C@@H](O)CC(=O)O)c(-c2ccc(F)cc2)c(-c2ccccc2)c1C(=O)NCc1ccc(F)cc1 (as salt: sodium) [Example 9, (3R,5R)-7-[5-(4-Fluoro-benzylcarbamoyl)-3-(4-fluoro-phenyl)-1-isopropyl-4-phenyl-1H-pyrrol-2-yl]-3,5-dihydroxy-heptanoic Acid Sodium Salt]
